Assay results reported in US20250235444A1, “COMPOSITION FOR PREVENTING OR TREATING VALVULAR CALCIFICATION” (MOKPO NATIONAL UNIVERSITY INDUSTRY-ACADEMIA COOPERATION …, priority 2022, published 2025).

Experiments:
[1] = system: porcine valvular interstitial cells; test: Calcification of porcine valvular interstitial cells induced by NaH2PO4 (PCM), Alizarin red staining and CPC analysis; assay type: cell-based; conditions: pro-calcifying medium with 2 mM NaH2PO4, 10 days
Description: (§1) To isolate porcine valvular interstitial cells, porcine heart valves were treated with collagenase for 15 minutes, after which endothelial cells were removed and cultured again for 24 hours. The cells obtained through centrifugation are valvular interstitial cells and were cultured in DMEM (high-glucose, Gibco) medium containing 0.1% amphotericin B, 1% penicillin-streptomycin, and 5% FBS.
To induce calcification, cells were seeded at a density of 1×10^4/ml in a 96-well culture vessel, and calcification was induced for a total of 10 days. […]
To quantify Alizarin Red stain, after washing twice with PBS, it was fixed with cold 70% ethanol at 4° C. for 1 hour, and after washing with dH2O, the sample was treated with 10% CPC (cetylpyridinium chloride, Sigma-Aldrich) for 1 hour (shaken and in the dark), transferred to a new measuring container, and measured for absorbance at 550 nm.
Interstitial cells were isolated from porcine heart valves and the inhibitory effect of paquinimod or tasquinimod on valvular calcification was confirmed according to the concentration. Porcine valve-derived cells were induced to calcify by NaH2PO4, and the degree of valvular calcification was measured after treatment with paquinimod or tasquinimod at different concentrations under the same conditions.

[2] = system: Osteopontin (OPN); test: Western blot analysis of calcification marker osteopontin in calcification-induced valvular interstitial cells; assay type: cell-based, porcine; conditions: compared to the calcification-induced experimental group; calcification induced for 10 days; FIG. 3
Description: as §1
(§2) To induce calcification, cells were seeded at a density of 1×10^4/ml in a 96-well culture vessel, and calcification was induced for a total of 10 days. Control medium (CM) used DMEM containing 0.1% amphotericin B, 1% penicillin-streptomycin, and 5% FBS and the pro-calcifying medium (PCM) was a control medium with 2 mM NaH2PO4 added. The medium was replaced every 2 days.
(§3) To observe if anti-calcification substances inhibit calcification, 10 uM or 100 uM paquinimod or 10 uM tasquinimod were treated, and 10% DMSO (Sigma-Aldrich) was treated as a control, and then cultured in a cell incubator at 37° C. with a 5% CO2 concentration.
(§4) After seeding cells at 5×10^4/mL in a 6-well plate, calcification was induced for a total of 10 days. […]
(§5) To lyse the cells, 1×RIPA buffer was added to each well and lysed for 10 minutes. […] Protein quantification of the obtained cell lysates was measured using Bio-Rad DC protein reagent. […]

[3] = system: RUNX2 (Runt-related transcription factor2); test: Western blot analysis of calcification marker RUNX2 in calcification-induced valvular interstitial cells; assay type: cell-based, porcine; conditions: compared to the calcification-induced experimental group; calcification induced for 10 days; FIG. 3
Description: as §1, §2, §3, §4, §5

Structure (SMILES)	degree of valvular calcification (Alizarin red staining and CPC analysis) ([1]; 10 uM or more of paquinimod (10 uM or 100 uM), FIG. 1)	expression of osteopontin (Western blot) [2]	expression of RUNX2 (Western blot) [3]	degree of valvular calcification ([1]; 10 uM tasquinimod, FIG. 2)
CCc1cccc2c1c(O)c(C(=O)N(CC)c1ccccc1)c(=O)n2C [paquinimod]	inhibition of valvular calcification in a concentration-dependent manner	significantly reduced	significantly reduced	–
COc1cccc2c1c(O)c(C(=O)N(C)c1ccc(C(F)(F)F)cc1)c(=O)n2C [tasquinimod]	–	–	–	had an inhibitory effect on valvular calcification
